The values that follow come from article PMC3268775 (Journal of the American Chemical Society, 2012).

One series in a line: pKa of [Re]–F3Y–βC19. In kind it is physicochemical. To be noted: pH 8.3.
The conditions of series [1]: pH 8.3; cited from earlier work.
The subject of the next series is α2: β2 complex. The note with it: cited from earlier work.

Consider `N[C@@H](Cc1c(F)cc(O)c(F)c1F)C(=O)O` [F3Y, 2,3,6-trifluorotyrosine], for which the F3Y deprotonated in the series “pKa of [Re]–F3Y–βC19” is on record as ~ 94%. In addition, in series [1], the “reduction potential of F3Y above tyrosine” value is ~ 180 mV.

B1: wild type α2: β2 complex: E. coli class Ia ribonucleotide reductase (protein, UniProt P00452 1-761; P69924 2-376, looked up)
Ribonucleoside-diphosphate … 1: MNQNLLVTKRDGSTERINLDKIHRVLDWAAEGLHNVSISQVELRSHIQFYDGIKTSDIHETIIKAAADLISRDAPDYQYLAARLAIFHLRKKAYGQFEPPALYDHVVKMVEMGKYDNHLLEDYTEEEFKQMDTFIDHDRDMTFSYAAVKQLEGKYLVQNRVTGEIYESAQFLYILVAACLFSNYPRETRLQYVKRFYDAVSTFKISLPTPIMSGVRTPTRQFSSCVLIECGDSLDSINATSSAIVKYVSQRAGIGINAGRIRALGSPIRGGEAFHTGCIPFYKHFQTAVKSCSQGGVRGGAATLFYPMWHLEVESLLVLKNNRGVEGNRVRHMDYGVQINKLMYTRLLKGEDITLFSPSDVPGLYDAFFADQEEFERLYTKYEKDDSIRKQRVKAVELFSLMMQERASTGRIYIQNVDHCNTHSPFDPAIAPVRQSNLCLEIALPTKPLNDVNDENGEIALCTLSAFNLGAINNLDELEELAILAVRALDALLDYQDYPIPAAKRGAMGRRTLGIGVINFAYYLAKHGKRYSDGSANNLTHKTFEAIQYYLLKASNELAKEQGACPWFNETTYAKGILPIDTYKKDLDTIANEPLHYDWEALRESIKTHGLRNSTLSALMPSETSSQISNATNGIEPPRGYVSIKASKDGILRQVVPDYEHLHDAYELLWEMPGNDGYLQLVGIMQKFIDQSISANTNYDPSRFPSGKVPMQQLLKDLLTAYKFGVKTLYYQNTRDGAEDAQDDLVPSIQDDGCESGACKI
Ribonucleoside-diphosphate … 2: AYTTFSQTKNDQLKEPMFFGQPVNVARYDQQKYDIFEKLIEKQLSFFWRPEEVDVSRDRIDYQALPEHEKHIFISNLKYQTLLDSIQGRSPNVALLPLISIPELETWVETWAFSETIHSRSYTHIIRNIVNDPSVVFDDIVTNEQIQKRAEGISSYYDELIEMTSYWHLLGEGTHTVNGKTVTVSLRELKKKLYLCLMSVNALEAIRFYVSFACSFAFAERELMEGNAKIIRLIARDEALHLTGTQHMLNLLRSGADDPEMAEIAEECKQECYDLFVQAAQQEKDWADYLFRDGSMIGLNKDILCQYVEYITNIRMQAVGLDLPFQTRSNPIPWINTWLVSDNVQVAPQEVEVSSYLVGQIDSEVDTDDLSNFQL
As for B1, the baseline catalytic turnover in the series with α2: β2 complex was 2 to 10 s⁻¹.
